Here are results for 7 molecules from PMC6199744, “Development of Chemical Proteomics for the Folateome and Analysis of the Kinetoplastid Folateome” (ACS Infectious Diseases, 2018).

Like-named read-outs stand apart in the source and are kept apart here.

Holding throughout (type): binding
For experiment [1], the target named is T1, HeLa cell extract proteins (Homo sapiens, UniProt P18074).
T1 construct: endogenous in cells; host or cells: HeLa cell extract
T1 sequence (P18074 1-760): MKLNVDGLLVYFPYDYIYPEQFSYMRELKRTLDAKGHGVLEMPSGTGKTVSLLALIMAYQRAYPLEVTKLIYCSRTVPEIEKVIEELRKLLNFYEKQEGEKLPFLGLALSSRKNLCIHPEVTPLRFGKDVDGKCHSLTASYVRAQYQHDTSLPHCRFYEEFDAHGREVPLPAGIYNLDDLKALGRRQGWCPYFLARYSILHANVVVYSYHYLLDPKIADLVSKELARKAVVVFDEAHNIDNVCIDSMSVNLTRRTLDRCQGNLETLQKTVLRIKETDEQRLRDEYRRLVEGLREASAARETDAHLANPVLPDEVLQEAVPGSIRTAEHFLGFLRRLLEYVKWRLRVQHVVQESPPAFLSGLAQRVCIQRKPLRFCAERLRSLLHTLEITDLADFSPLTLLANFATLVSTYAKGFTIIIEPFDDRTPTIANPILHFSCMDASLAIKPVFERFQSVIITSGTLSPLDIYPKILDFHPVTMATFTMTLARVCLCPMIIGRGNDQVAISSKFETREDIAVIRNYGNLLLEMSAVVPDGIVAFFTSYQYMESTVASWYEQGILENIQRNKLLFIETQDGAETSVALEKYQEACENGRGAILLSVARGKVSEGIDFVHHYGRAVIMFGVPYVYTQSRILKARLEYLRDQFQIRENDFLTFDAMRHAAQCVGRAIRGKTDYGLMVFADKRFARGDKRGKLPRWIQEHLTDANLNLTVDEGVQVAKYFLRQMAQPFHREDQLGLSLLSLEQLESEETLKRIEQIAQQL

The target of experiment [2] is T2, HeLa cell extract proteins (Homo sapiens, UniProt P35613).
T2 construct: endogenous in cells; host or cells: HeLa cell extract
T2 sequence (P35613 22-385): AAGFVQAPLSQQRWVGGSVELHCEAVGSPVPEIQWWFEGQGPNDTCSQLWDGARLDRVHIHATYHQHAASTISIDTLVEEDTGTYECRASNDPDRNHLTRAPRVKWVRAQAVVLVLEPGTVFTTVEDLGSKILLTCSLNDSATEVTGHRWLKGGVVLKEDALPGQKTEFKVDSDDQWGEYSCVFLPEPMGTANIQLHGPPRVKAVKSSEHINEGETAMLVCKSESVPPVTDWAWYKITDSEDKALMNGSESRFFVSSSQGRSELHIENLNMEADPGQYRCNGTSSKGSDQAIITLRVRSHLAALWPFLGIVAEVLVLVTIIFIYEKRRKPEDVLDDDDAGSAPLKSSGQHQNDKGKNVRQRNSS

Experiment [3] addresses T3, HeLa cell extract proteins (Homo sapiens, UniProt P48163).
T3 construct: endogenous in cells; host or cells: HeLa cell extract
T3 sequence (P48163 1-572): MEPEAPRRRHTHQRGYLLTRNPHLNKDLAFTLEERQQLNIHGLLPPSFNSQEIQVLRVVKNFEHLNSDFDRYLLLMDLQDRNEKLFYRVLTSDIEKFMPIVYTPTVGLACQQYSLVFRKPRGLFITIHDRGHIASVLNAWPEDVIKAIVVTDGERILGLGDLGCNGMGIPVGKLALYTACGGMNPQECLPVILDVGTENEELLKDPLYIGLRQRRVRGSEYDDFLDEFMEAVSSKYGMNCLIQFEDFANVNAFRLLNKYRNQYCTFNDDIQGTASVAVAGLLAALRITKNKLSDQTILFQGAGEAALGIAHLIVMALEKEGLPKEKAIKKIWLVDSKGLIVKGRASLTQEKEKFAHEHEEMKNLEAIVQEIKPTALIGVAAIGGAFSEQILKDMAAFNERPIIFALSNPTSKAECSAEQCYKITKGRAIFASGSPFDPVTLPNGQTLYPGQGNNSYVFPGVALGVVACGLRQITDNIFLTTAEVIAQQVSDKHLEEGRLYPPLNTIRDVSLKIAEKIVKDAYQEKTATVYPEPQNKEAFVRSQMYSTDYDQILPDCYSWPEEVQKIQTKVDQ

Experiment [4] concerns the target T4, HeLa cell extract proteins (Homo sapiens, UniProt Q16543).
T4 construct: endogenous in cells; host or cells: HeLa cell extract
T4 sequence (Q16543 1-378): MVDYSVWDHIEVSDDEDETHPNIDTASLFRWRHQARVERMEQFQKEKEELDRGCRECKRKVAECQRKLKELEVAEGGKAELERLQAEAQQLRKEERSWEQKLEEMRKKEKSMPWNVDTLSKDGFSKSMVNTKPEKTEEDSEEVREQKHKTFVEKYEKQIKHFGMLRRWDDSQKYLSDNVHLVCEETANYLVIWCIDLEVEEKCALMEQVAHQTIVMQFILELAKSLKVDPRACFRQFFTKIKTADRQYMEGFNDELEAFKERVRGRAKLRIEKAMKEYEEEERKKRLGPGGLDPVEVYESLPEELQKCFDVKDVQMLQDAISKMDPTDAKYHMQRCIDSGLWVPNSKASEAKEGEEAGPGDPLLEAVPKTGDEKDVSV

Experiment [5] concerns the target T5, HeLa cell extract proteins (Homo sapiens, UniProt Q6R327).
T5 construct: endogenous in cells; host or cells: HeLa cell extract

The target of experiment [6] is T6, HeLa cell extract proteins (Homo sapiens, UniProt P41250).
T6 construct: endogenous in cells; host or cells: HeLa cell extract
T6 sequence (P41250 37-739): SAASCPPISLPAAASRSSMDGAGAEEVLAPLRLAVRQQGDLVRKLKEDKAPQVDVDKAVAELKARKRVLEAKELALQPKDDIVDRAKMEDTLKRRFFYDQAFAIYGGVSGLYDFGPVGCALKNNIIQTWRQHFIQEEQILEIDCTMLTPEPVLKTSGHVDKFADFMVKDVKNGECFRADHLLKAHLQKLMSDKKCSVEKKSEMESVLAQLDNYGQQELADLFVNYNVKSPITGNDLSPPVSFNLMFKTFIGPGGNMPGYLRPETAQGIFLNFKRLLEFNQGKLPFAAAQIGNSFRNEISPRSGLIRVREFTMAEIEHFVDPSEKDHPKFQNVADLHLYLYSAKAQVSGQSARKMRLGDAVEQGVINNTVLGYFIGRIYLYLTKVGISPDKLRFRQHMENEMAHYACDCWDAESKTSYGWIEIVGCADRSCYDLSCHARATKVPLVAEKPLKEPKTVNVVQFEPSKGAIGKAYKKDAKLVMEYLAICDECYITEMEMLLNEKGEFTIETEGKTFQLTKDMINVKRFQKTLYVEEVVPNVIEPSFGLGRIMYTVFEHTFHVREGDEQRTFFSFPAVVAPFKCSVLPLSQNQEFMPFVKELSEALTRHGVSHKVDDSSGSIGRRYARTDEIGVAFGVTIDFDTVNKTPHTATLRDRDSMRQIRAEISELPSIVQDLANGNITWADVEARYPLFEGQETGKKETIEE
The following applies: protein GARS; HeLa.

The target of experiment [7] is T7, HeLa cell extract proteins (Homo sapiens, UniProt P46109).
T7 construct: endogenous in cells; host or cells: HeLa cell extract
To be noted: HeLa; protein CRKL.

T5 sequence (Q6R327 whole entry): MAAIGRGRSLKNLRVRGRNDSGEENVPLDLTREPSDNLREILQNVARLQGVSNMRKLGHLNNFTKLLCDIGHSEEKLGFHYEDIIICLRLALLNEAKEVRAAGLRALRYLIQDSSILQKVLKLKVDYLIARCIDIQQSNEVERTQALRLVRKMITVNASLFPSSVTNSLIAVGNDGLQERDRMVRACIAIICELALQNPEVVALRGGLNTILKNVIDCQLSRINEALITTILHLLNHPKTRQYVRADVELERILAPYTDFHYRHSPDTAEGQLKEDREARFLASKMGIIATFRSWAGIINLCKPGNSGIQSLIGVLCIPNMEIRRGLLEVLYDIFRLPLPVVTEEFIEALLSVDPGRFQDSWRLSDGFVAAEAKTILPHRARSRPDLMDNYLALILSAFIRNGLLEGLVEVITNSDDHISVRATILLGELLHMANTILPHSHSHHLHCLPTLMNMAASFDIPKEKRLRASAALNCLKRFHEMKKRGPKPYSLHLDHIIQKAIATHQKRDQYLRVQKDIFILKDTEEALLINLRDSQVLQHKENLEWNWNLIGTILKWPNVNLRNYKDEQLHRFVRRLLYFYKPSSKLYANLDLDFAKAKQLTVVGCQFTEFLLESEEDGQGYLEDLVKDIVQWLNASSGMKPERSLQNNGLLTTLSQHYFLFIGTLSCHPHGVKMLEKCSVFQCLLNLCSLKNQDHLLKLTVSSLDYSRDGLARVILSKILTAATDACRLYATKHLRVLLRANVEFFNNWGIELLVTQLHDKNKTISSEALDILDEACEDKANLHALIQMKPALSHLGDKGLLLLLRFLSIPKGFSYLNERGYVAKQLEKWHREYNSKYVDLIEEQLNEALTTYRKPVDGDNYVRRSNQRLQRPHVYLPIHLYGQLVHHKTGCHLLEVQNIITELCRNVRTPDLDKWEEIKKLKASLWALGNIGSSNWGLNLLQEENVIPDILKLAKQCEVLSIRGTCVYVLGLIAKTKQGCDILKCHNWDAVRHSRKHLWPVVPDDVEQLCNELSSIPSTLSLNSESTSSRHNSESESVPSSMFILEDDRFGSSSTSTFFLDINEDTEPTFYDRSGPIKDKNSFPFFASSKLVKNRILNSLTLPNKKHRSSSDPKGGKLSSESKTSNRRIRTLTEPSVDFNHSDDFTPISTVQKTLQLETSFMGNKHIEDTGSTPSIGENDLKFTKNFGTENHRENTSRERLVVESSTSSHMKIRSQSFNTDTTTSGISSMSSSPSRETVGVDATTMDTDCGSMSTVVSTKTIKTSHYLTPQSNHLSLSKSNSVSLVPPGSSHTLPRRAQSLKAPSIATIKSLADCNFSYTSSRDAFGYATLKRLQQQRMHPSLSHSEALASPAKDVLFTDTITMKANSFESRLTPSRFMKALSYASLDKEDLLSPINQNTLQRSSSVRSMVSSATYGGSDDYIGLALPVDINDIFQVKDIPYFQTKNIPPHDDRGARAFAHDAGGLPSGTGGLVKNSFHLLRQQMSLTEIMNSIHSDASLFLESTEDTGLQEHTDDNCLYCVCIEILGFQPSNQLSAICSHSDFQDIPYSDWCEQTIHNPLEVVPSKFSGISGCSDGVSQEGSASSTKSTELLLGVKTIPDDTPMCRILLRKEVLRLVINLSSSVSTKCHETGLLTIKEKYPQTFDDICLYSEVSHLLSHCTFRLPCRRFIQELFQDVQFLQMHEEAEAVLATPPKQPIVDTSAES
T7 sequence (P46109 whole entry): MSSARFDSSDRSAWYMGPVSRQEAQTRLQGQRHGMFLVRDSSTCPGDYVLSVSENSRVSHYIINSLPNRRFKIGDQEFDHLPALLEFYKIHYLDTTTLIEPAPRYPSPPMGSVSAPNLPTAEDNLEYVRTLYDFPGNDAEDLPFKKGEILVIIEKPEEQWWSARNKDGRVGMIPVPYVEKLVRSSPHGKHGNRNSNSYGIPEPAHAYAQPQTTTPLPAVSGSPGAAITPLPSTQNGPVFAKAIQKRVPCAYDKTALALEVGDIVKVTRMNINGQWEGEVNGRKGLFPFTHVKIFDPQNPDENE

For `Nc1nc2c(c(=O)[nH]1)N(C=O)C(CNc1ccc(C(=O)N[C@@H](CCC(=O)O)C(=O)O)cc1)CN2` (some centres unmarked) [LEU, leucovorin], the “fold changes relative to vehicle control” value was determined as 1.14 in experiment [1] (HeLa, captured protein ERCC2); 0.87 in experiment [2] (protein BSG, HeLa); 0.79 in experiment [3] (protein ME1, HeLa); 1.13 in experiment [4] (protein CDC37, HeLa); 0.92 in experiment [5] (HeLa, protein RICTOR).

`Nc1nc2[nH]cc(CCc3ccc(C(=O)N[C@@H](CCC(=O)O)C(=O)O)cc3)c2c(=O)[nH]1` [PTX, pemetrexed]: the “fold changes relative to vehicle control” value in experiment [1] amounted to 0.98; in experiment [2], 0.88; in experiment [3] it was 0.84; in experiment [4], 1.1; in experiment [5], 0.97.

Regarding `CCCCCCOc1ccc(Cc2cnc(N)nc2N)cc1` [compound 1], the “fold changes relative to vehicle control” value in experiment [6] was 1.14; in experiment [7], 0.82.

For `CCCCCCOc1cccc(Cc2cnc(N)nc2N)c1` [compound 2], the entries for the “fold changes relative to vehicle control” value in experiment [6] and in experiment [7] were 1.74 and 0.96, respectively.

For `Nc1nc2cccc(-c3ccccc3)c2n1Cc1ccc(Cl)c(Cl)c1` [compound 3], the “fold changes relative to vehicle control” value in experiment [6] was found to be 0.93; in experiment [7], 1.15.

For the molecule `NCCOCCOCC(=O)Nc1nc2ncc(CNc3ccc(C(=O)NC(CCC(=O)O)C(=O)O)cc3)nc2c(=O)[nH]1` (centres unmarked) [compound 6], the “fold changes relative to vehicle control” value came out at 0.98 in experiment [1] (HeLa, captured protein ERCC2); 1.02 in experiment [2] (protein BSG, HeLa); 1.02 in experiment [3] (protein ME1, HeLa); 1.21 in experiment [4] (protein CDC37, HeLa); 1.11 in experiment [5] (HeLa, protein RICTOR).

As for `NCCCNc1ccc(C(=O)NC(CCC(=O)O)C(=O)O)cc1` (centres unmarked) [compound 7], the “fold changes relative to vehicle control” value is 1 in experiment [1] (HeLa, captured protein ERCC2); 0.8 in experiment [2] (protein BSG, HeLa); 0.86 in experiment [3] (protein ME1, HeLa); 1.14 in experiment [4] (protein CDC37, HeLa); 1.11 in experiment [5] (HeLa, protein RICTOR).
